Read-outs that look alike come from different tables or passages of the source.
Experiments:
PP2A = PP2A (Homo sapiens, UniProt P67775); conditions: cited from earlier work
C57Bl/6J mice [1] = assay: Re-exposure to the context test (freezing) after FsE; type: in vivo; conditions: LB100 ip 6-8 h after FsE; one day after FsE
Description: (§1) The inescapable shock procedure was previously described in Stamatakis and Stuber 2012. Briefly, we placed mice into standard mouse behavioral chambers (Imetronics) equipped with a metal grid floor. We let them to habituate at the new environment for 5 m. In a 20 m session animals received either 19 or 0 unpredictable foot shocks (1 mA, 500 ms) with an interstimulus interval of 30, 60 or 90 s. We anesthetized mice for patch-clamp electrophysiology 1 h, 24 h, 7 d, 14 d or 30 d after the session ended.
(§2) For LB treatment experiments, mice were injected with LB (1.5 mg/Kg i.p.) or saline 6-8 hours after the FsE. The effects of the treatment on the LHb excitability and GABAB-GIRKs currents as well as the behavioural assay were assessed at day 1 or 7. For both electrophysiology and behaviour once treated the animal were housed in groups of 4-6 and let undisturbed until the day of the test.
For this experiment mice were re-exposed 24 h after to the chamber where they received (or not) shocks for a total duration of 5 m. […] The behavior was scored according to a 5-sec instantaneous time-sampling procedure every 25 sec (Fanselow and Bolles 1979). The observer scored the animal as freezing, scanning or active at that instant and then proceeded to the next chamber. […] Thus each animal was scored […], yielding 10 observations for each mouse for total 5 minutes session. […]

[2] = test system: GABAB-GIRK currents in LHb neurons; type: cell-based, mice; conditions: LB100 0.1 μM in the bath; for I-baclofen current: mean±s.e.m.
LHb neurons = assay: In vivo LB100 treatment after FsE, LHb neuronal excitability (input-output curve) in slices; parameters: species or system mice; conditions: LB100 1.5 mg/kg ip 6-8 h after FsE
Description: as §1
For the Okadaic acid (OA) and the CaMKII inhibitor KN93 experiments, respectively 100 nM of OA or 10 μM of KN93 were added in the internal solution. For the PP2A inhibitor LB100 experiments, LB100 (0.1 μM) was applied in the bath. Miniature excitatory postsynaptic currents (mEPSCs) were recorded in voltage-clamp mode at −60 mV in presence of bicuculine (10 μM) and TTX (1 μM). Miniature inhibitory postsynaptic currents (mIPSCs) were recorded (−60 mV) in presence of NBQX (20 μM) and TTX (1 μM). EPSCs and IPSCs were evoked through an ACSF filled monopolar glass electrode placed 200 μm from the recording site in the stria medullaris. AMPA:NMDA ratios of evoked-EPSC were obtained by AMPA-EPSC −60 mV/NMDA-EPSCs at +40 mV. Rectification Index (RI) was computed by […]-60/AMPA-EPSC+40. For the experiments in which high-frequency stimulation trains were used to determine presynaptic release probability, QX314 (5 mM) was included in the internal solution to prevent the generation of sodium spikes. Current-clamp experiments, were performed by a series of current steps (negative to positive) injected to induce action potentials (5-10 pA injection current per step, 800 ms).
as §2

[3] = test system: GABAB-GIRK currents in LHb neurons; assay: In vivo LB100 treatment after foot-shock exposure (FsE), I-baclofen recorded in LHb slices; parameters: species or system mice; conditions: for FsE-induced decrease in I-baclofen (CTRL vs FsE): 7 days after FsE; for FsE-induced I-baclofen attenuation (CTRL vs FsE): one day after FsE
Description: as §1
Cell-attached recordings in ACSF were performed in GΩ seal with a Vc=0 and Hc=0. Whole-cell voltage clamp recordings were achieved to measure GABAB-GIR currents in presence of Bicuculine (10 μM), NBQX (20 μM) and AP5 (50 μM). […] GABAB-GIRK currents were confirmed by antagonism with either 10 μM of CGP54626, a specific GABAB antagonist or 1 mM Ba^2, a selective inhibitor of inward rectifiers. For the GTPγS experiment, 100 μM of GTPγS was added to the internal solution in place of Na3GTP.
as §2

cancer cells = conditions: cited from earlier work; for Anti-cancer activity when used alone: mouse model systems (Lu et al. 2009a)
C57Bl/6J mice [4] = assay: Forced swim test after FsE; type: in vivo; conditions: for FsE-driven impairment in the forced swim test (depressive-like phenotype): LB100 ip 6-8 h after FsE, 7 days after FsE
Description: as §1, §2
Forced swim test was conducted under normal light condition as previously described (Meye, Valentinova, Lecca et al 2015). Mice were placed in a cylinder of water (temperature 23-25° C.; 14 cm in diameter, 27 cm in height for mice) for six min. The depth of water was set to prevent animals from touching the bottom with their hind limbs. Animal behavior was videotracked from the top (Viewpoint, France). The latency to the first immobility event and the immobility time of each animal spent during the test was counted online by two independent observer blind of the animal treatments. Immobility was defined as floating or remaining motionless, which means absence of all movement except motions required to maintain the head above the water.

[5] = LB100 1.5 mg/kg ip 6-8 h after FsE, 1.5 mg/kg
[6] = LB100 1.5 mg/kg ip 6-8 h after FsE, listed as LB-100, 1.5 mg/kg
[7] = LB-100 ip 6-8 h after FsE, FST 7 days after FsE

PP2A, sequence (P67775 whole entry): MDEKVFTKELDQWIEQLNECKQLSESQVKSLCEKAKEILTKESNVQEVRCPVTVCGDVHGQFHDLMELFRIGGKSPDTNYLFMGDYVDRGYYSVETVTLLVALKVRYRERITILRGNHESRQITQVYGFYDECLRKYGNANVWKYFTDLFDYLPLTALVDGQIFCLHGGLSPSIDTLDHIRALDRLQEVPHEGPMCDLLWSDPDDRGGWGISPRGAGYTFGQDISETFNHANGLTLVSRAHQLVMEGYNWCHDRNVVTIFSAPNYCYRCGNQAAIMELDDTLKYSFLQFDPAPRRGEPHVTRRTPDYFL
PP2A, sequence (P30153 whole entry partner): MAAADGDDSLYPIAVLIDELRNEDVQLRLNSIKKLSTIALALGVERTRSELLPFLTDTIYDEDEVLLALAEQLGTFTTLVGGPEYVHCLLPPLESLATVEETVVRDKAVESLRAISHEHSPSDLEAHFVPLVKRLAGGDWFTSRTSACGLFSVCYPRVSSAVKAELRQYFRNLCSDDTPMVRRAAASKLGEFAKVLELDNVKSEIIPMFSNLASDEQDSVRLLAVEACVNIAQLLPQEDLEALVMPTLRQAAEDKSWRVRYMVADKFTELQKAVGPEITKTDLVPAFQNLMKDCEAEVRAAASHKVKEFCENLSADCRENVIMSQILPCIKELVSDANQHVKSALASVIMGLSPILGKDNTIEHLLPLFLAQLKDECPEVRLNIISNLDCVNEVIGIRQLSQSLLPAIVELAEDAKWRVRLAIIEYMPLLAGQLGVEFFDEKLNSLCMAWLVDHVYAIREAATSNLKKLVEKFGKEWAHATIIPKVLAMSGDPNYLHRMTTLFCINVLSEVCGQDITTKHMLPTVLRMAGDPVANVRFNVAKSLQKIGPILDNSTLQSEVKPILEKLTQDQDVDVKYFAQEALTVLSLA

CN1CCN(C(=O)C2C(C(=O)O)[C@H]3CC[C@@H]2O3)CC1 (stereo partly shown) [LB100]
Duration of inhibition of PP2A activity (PP2A; 1.5 mg/Kg (Lu et al., 2009b)): about 12 hours | Time of peak of PP2A-inhibiting activity (PP2A; 1.5 mg/Kg (Lu et al., 2009b)): ~8 h | PP2A inhibition (PP2A; in vitro in human cancer cells and in xenografts of human tumor cells in mice when given parenterally): inhibitor of PP2A | Freezing score in the re-exposure to the context test (C57Bl/6J mice [1]): did not affect | FsE-induced inhibition of GABAB-GIRK currents (I-baclofen CTRL vs FsE) [2]: sufficient to rescue | I-baclofen current ([2]; slices from CTRL mice): 88.41±18.64 pA | I-baclofen current ([2]; slices from FsE mice): 85.09±0.67 pA | FsE-induced inhibition of GABAB-GIRK currents (I-baclofen CTRL vs FsE) ([2]; listed as LB-100): comparable | LHb neuronal excitability, input-output curve CTRL vs FsE (LHb neurons; 7 days after, 1.5 mg/kg): able to abolish the increase in excitability | LHb neuronal excitability, input-output curve CTRL vs FsE (LHb neurons; 7 days after, listed as LB-100, 1.5 mg/kg): normalized | LHb neuronal excitability, input-output curve CTRL vs FsE (LHb neurons; one day after, 1.5 mg/kg): did not show any difference | LHb neuronal excitability, input-output curve CTRL vs FsE (LHb neurons; one day after, listed as LB-100, 1.5 mg/kg): normalized | I-baclofen current ([3]; LB100 1.5 mg/kg ip 6-8 h after FsE protocol, recorded one day after, CTRL mice): 93.88±18.37 pA | FsE-induced decrease in I-baclofen (CTRL vs FsE) [3, 5]: able to revert | FsE-induced decrease in I-baclofen (CTRL vs FsE) [3, 6]: comparable | FsE-induced I-baclofen attenuation (CTRL vs FsE) [3, 5]: not present | FsE-induced I-baclofen attenuation (CTRL vs FsE) [3, 6]: comparable | I-baclofen current ([3]; LB100 1.5 mg/kg ip 6-8 h after FsE, recorded one day after, FsE mice): 97.00±18.05 pA | I-baclofen current ([3]; single injection of LB100 6-8 hours after the shock protocol, recorded 7 days later, CTRL mice): 95.54±30.00 pA | I-baclofen current ([3]; single injection of LB100 6-8 hours after the shock, recorded 7 days later, FsE mice): 92.97±14.84 pA | Toxicity in combination with standard cytotoxic anti-cancer drugs (cancer cells; in vivo): without observable increase in toxicity | Anti-cancer activity when used alone (cancer cells): has anti-cancer activity | Anti-cancer activity when used alone (cancer cells; listed as LB-100): inhibits the growth of cancer cells | Potentiation in vivo of anti-tumor activity of standard cytotoxic anti-cancer drugs (cancer cells; with temozolomide, doxorubicin, docetaxel): significantly potentiates | FsE-driven impairment in the forced swim test (depressive-like phenotype) (C57Bl/6J mice [4]): sufficient to rescue the impairment | FsE-driven impairment in the forced swim test (depressive-like phenotype) (C57Bl/6J mice [4]; listed as LB-100): behavioral normalization | Latency to the first immobility, control vs FsE group (C57Bl/6J mice [4]; [7]): comparable | Total immobility, control vs FsE group (C57Bl/6J mice [4]; [7]): comparable

From US10413541B2, “Oxabicycloheptanes and oxabicycloheptenes for the treatment of depressive and stress disorders” (LIXTE BIOTECHNOLOGY, INC., priority 2015, dated 2019)
